The values below come from patent EP4660190A1, “PHARMACEUTICALLY ACCEPTABLE SALT OF COMPOUND AND PREPARATION METHOD THEREFOR” (Jiangsu Chia Tai Fenghai Pharmaceutical Co., Ltd., priority 2023, dated 2024).

Each structure is given as a SMILES string. Where two headings read alike, the source gives them in different places.

Data set [1] concerns Middle cerebral artery occlusion (MCAO) models of SD rats. In words: Rat MCAO model, single-dose administration, TTC staining infarct size. As to conditions: 24 h; for Infarct Size (%): Mean±SD. Type of data set: in vivo. How it is done:
3: Pharmacodynamic study in Rat Middle Cerebral Artery Occlusion (MCAO) Model (Single-Dose Administration) Middle cerebral artery occlusion (MCAO) models of SD rats were constructed using the suture occlusion method to evaluate the protection effect of the compound on neurons of rats after cerebral ischemia-reperfusion. After anaesthesia induction with 3.0% isoflurane in SD rats (240-270g), the operation was performed, and the right-side neck area was dissected to reveal the right common carotid artery (CCA), external carotid artery (ECA) and internal carotid artery (ICA). The ECA was ligated. The ICA was temporarily occluded. Sutures were threaded at both the proximal end and the distal end of CCA. The distal end was securely ligated, and a loosely tied knot was placed at the proximal end. A small incision was made between the two ligatures on the CCA. A No. 4-0 suture was inserted through the incision of CCA and slowly and gently pushed into the ICA. The threading was halted temporarily when reaching the artery clamp of ICA. The pre-ligation suture was further tightened. The artery clamp blocking the blood flow in the ICA was removed, allowing the suture occlusion to be advanced into the ICA until it entered the intracranial region. […] The insertion was stopped at the moment, and the time was recorded. The artery clamp on the CCA was removed and the incision was closed after no active bleeding was observed. The ischemic rats were placed at room temperature to keep their body temperature at 37°C, and anesthesia induction could be carried out 120min later. The suture was slowly and gradually withdrawn when the rats were maintained under anesthesia, so that the proximal end of the suture returned to the ECA, thereby initiating reperfusion of the middle cerebral artery. Animals were administered for a single dose immediately after reperfusion (within 10min). 3 groups were established, namely a model control group, a Compound (I) i.v. group (30mg/kg), and a Compound (I) p.o. group (60mg/kg). Animals were euthanized 24 h after ischemia reperfusion, and the brains were rapidly taken, frozen, and dissected for TTC staining. The normal tissues were rose-red after staining, and the infarcted tissues were white. The infarct size (%) percentage, calculated as the weight of infarcted tissues to the weight of the whole brain, is used to evaluate the degree of cerebral ischemic injury in rats.

The conditions of data set [2]: rat, value in literature, cited from earlier work.

As to `CCC/C(O)=C1/C(=O)Oc2ccccc21` [Compound (I)], the “Cerebral infarction inhibition rate (%)” value in data set [1] (i.v. 30mg/kg single dose after reperfusion) is 37.1%; in data set [1] (p.o. 60mg/kg single dose after reperfusion), 31.2%. In addition, the “Infarct Size (%)” value in data set [1] (i.v. 30mg/kg single dose after reperfusion, 30 mg/kg) is 13.61±3.66 %; in data set [1] (i.v. 30mg/kg single dose after reperfusion, listed as compound (I), 30 mg/kg) it was 13.61±3.66%; in data set [1] (p.o. 60mg/kg single dose after reperfusion, 60 mg/kg), 14.88±5.11 %; in data set [1] (p.o. 60mg/kg single dose after reperfusion, listed as compound (I), 60 mg/kg), 14.88±5.11%.
For orientation: Cmax means the maximum level reached in the sampled fluid or tissue. As usually defined, the Tmax is the time at which the peak concentration occurs. With `CCCCC1OC(=O)c2ccccc21` (stereo not shown) [Butylphthalide, butylphthalide, reference compound], in data set [2] (i.v. 10 mg/kg), the AUC0-inf was 8620.0 ng·h/mL, the AUC0-t was 7230.0 ng·h/mL, the MRTinf is 2.4 h and the T1/2 was 2.2 h. Also, in data set [2] (p.o. 60 mg/kg), the AUC0-inf is 8560.0 ng·h/mL, the AUC0-t was 7110.0 ng·h/mL, the Cmax is 2900.0 ng/mL and the MRTinf was 3.8 h. Besides, in data set [2] (p.o. 60 mg/kg), the T1/2 is given as 2.83 h and the Tmax was 42 min.
